{"source": "patent US20220098196A1", "about": "“TRAPPING-FREE PARP INHIBITORS” (The Board of Regents of the University of Texas System, priority 2019, published 2022)", "key": {"PARP1 [1]": {"biological_target": "T1, PARP1 (Homo sapiens, UniProt P09874)", "T1 sequence (P09874 whole entry)": "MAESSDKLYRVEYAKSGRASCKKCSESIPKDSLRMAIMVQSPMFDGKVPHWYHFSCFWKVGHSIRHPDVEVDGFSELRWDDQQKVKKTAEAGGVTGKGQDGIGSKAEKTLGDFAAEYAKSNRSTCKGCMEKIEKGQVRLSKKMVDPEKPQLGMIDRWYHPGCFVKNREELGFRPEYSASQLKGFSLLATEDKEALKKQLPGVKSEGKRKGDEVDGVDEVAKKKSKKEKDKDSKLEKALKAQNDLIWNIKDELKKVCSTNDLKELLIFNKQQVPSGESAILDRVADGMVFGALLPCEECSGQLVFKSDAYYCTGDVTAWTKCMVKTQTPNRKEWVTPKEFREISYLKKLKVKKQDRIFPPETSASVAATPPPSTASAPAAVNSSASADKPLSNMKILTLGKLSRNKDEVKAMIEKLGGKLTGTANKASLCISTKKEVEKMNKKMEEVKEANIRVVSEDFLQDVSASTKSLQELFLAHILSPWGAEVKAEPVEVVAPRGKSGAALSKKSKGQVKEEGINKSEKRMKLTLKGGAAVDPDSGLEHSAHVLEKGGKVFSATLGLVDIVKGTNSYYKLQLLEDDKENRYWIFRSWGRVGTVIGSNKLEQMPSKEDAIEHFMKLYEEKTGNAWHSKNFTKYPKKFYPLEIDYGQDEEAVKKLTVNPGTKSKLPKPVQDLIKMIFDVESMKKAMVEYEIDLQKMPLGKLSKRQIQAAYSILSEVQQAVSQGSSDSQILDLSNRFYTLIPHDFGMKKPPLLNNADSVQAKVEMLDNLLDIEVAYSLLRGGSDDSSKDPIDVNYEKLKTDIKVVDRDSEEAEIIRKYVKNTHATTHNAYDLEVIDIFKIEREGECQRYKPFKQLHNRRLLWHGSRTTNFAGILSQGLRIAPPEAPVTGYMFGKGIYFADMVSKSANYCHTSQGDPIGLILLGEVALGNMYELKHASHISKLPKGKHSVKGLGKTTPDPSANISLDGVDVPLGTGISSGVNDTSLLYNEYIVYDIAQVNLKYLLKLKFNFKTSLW", "assay": "PARP1 trapping in HeLa cells (subcellular fractionation, chromatin-bound fraction)", "assay_type": "cell-based", "design": "host or cells: HeLa", "conditions": "5 μM for all compounds, MMS 0.01%", "experimental": "Subcellular Proteins Extraction. […] The cytosolic proteins were isolated by incubating the cells with the CEB buffer for 10 min at 4° C., and centrifuged at 500 g for 5 min. The membrane proteins were isolated by incubating the pellet from previous step with the MEB buffer for 10 min at 4° C., and centrifuged at 3000 g for 5 min. The soluble nuclear proteins were isolated by incubating the pellet from previous step with the NEB buffer for 30 min at 4° C., and centrifuged at 5000 g for 5 min. The chromatin bound proteins were isolated by incubating the pellet from previous step with the NEB buffer supplemented with nuclease for 15 min at RT and centrifuged at 16000 g for 5 min. Protein concentrations were determined by the BCA assay kit."}, "PARP1 [2]": {"biological_target": "T1, PARP1", "assay": "PARP1 degradation in HeLa cells (immunoblotting)", "assay_type": "cell-based", "design": "host or cells: HeLa", "conditions": "24 hours; for effect on iRucaparib-induced PARP1 degradation: iRucaparib 5 μM plus MG132 (1 μM), Rucaparib (1 μM) or increasing pomalidomide; for PARP1 degradation: increasing concentrations", "method": "(§1) Immunoblotting. Cells were washed once with cold PBS and lysed with the SDS lysis buffer (1% SDS, 10 mM HEPES pH 7.0, 2 mM MgCl2, 500 U universal nuclease). Protein concentrations were determined by the BCA assay kit (Thermo Fisher Scientific). A total of 20 μg proteins (40 μg proteins for PAR immunoblotting experiments) were loaded onto the SDS-PAGE gel and were then transferred to a nitrocellulose membrane. Nitrocellulose membranes were then blocked with the TBST buffer containing 5% milk (Bio-Rad). Membranes were incubated with the primary antibodies overnight at 4° C. and the secondary antibodies for 1 hour at room temperature (RT). The blots were developed using enhanced chemiluminescence and were exposed on autoradiograph films."}, "[3]": {"conditions": "Phase III, patients taking pomalidomide and dexamethasone vs. dexamethasone alone; p=0.0002; cited from earlier work"}, "PARP1 [4]": {"biological_target": "T1, PARP1", "assay": "In Vitro PARP1 Activity Assay (PARP universal chemiluminescent assay kit)", "assay_type": "biochemical", "conditions": "in vitro", "experimental": "In Vitro PARP1 Activity Assay. […] Briefly, the histone-coated strip wells were hydrated with the assay buffer for 30 min. The various compounds were added and were incubated with the PARP enzyme for 10 min. The reaction cocktail containing biotinylated NAD^+ was then added into the system, which was incubated for 1 hour to activate PARP1. After the reaction, the wells were washed twice with 0.1% Triton X-100/PBS and twice with PBS. The wells were incubated with Strep-HRP for another hour and were washed again as described above. PeroxyGlow reagents were mixed and added into the strip wells, and the biotin signal on coated histone was immediately measured with chemiluminescence on a Synergy microplate reader (Bio-Tek). The well without PARP1, and the well with PARP1 only was used as the negative (0%) and positive (100%) control, respectively."}, "PARP1 [5]": {"biological_target": "T1, PARP1", "assay": "PARP1 degradation in VHL-proficient (BT-549, PC-3) and VHL-deficient (786-O) cells (immunoblotting)", "assay_type": "cell-based", "design": "host or cells: MDA-MB-468; BT-549; PC-3; 786-O", "conditions": "24 hours", "method": "as §1"}, "PARP1 [6]": {"biological_target": "T1, PARP1", "assay": "TMT quantitative proteomics in BT-549 cells, PARP1", "assay_type": "cell-based", "conditions": "iRucaparib 5 μM or VHL-Rucaparib 20 μM, 24 hours, 8,207 quantified proteins", "from_the_text": "Quantitative Mass Spectrometry.\nProteins were then extracted using methanol-chloroform precipitation.\nThe maximum intensity of each reporter ion was extracted."}, "ZFP91": {"biological_target": "ZFP91 (Homo sapiens, UniProt Q96JP5+Q96SW2)", "sequence (Q16531 2-1140)": "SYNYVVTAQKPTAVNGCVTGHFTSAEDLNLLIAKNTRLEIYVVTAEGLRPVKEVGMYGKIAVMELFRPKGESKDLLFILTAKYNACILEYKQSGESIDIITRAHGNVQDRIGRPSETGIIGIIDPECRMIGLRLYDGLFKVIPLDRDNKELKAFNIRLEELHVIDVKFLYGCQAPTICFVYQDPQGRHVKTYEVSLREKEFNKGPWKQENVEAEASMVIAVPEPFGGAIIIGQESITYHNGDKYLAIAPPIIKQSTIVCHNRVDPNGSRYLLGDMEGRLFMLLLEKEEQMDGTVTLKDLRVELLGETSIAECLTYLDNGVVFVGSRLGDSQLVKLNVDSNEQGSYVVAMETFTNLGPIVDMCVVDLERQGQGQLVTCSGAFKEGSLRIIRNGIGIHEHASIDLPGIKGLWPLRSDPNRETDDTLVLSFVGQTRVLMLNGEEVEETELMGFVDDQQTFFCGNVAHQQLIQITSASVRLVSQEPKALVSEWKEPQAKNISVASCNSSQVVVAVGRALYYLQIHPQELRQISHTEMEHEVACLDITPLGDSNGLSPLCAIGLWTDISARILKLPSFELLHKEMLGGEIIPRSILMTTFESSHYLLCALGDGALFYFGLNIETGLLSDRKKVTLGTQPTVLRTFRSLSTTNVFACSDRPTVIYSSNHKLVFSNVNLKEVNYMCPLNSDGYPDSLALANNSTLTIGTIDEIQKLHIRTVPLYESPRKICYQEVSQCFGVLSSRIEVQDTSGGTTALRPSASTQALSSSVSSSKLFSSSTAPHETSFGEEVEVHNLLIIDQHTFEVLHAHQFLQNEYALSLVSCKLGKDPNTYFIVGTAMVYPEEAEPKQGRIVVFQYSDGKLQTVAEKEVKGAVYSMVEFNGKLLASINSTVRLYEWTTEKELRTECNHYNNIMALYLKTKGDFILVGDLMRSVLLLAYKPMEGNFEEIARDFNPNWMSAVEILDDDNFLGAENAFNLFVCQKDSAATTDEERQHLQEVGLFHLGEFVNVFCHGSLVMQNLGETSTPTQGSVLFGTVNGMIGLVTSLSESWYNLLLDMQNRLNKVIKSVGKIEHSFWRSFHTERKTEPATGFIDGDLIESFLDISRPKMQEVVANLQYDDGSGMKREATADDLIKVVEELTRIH", "sequence (Q96SW2 whole entry)": "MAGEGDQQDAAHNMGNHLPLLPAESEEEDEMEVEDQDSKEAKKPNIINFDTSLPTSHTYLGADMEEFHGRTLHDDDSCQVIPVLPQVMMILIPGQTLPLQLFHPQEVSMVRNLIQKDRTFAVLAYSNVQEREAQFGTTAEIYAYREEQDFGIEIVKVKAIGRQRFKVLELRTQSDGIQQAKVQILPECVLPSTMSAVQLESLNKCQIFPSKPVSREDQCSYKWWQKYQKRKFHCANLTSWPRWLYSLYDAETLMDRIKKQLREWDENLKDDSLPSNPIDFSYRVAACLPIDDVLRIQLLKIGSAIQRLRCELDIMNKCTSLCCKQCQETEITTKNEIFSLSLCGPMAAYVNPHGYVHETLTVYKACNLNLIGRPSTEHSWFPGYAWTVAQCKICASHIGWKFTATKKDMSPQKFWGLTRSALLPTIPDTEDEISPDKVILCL", "sequence (Q96JP5 2-570)": "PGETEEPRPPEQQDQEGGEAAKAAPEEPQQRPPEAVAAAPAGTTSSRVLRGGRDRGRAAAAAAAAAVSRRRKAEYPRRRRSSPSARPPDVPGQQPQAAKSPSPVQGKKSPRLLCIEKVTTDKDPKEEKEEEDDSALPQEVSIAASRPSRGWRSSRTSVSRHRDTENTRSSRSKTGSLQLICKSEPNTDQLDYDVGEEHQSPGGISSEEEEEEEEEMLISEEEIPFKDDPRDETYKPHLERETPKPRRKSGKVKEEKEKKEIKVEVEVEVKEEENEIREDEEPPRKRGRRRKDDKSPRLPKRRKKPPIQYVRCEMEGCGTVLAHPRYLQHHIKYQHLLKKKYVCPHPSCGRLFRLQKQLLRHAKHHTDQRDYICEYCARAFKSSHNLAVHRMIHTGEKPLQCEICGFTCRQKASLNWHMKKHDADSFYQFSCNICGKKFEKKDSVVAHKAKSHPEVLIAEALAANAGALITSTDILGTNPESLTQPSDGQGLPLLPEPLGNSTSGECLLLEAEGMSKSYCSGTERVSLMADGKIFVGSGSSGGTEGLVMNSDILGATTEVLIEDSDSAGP", "assay": "TMT quantitative proteomics in BT-549 cells, ZFP91", "assay_type": "cell-based", "design": "host or cells: HeLa; BT-549", "conditions": "VHL-Rucaparib 20 μM, 24 hours", "experimental": "Quantitative Mass Spectrometry. […] Two biological replicate samples were prepared for each treatment condition. Cells were washed with cold PBS and lysed using the SDS lysis buffer. Protein concentrations were determined by the BCA assay (Thermo Fisher Scientific). For each sample, 500 μg of protein was used for the subsequent TMT experiments^34.\nFor the TMT experiments, proteins were reduced with 2 mM DTT for 10 min and alkylated with 50 mM iodoacetamide for 30 min in dark. Proteins were then extracted using methanol-chloroform precipitation. Protein pellets were dissolved in 400 μL 8 M Urea buffer (8 M urea, 50 mM Tris-HCl, 10 mM EDTA, pH 7.5) and were digested by Lys-C (Wako, at a 1:100 enzyme/protein ratio) for 2 hours at RT. The urea concentration was then reduced to 2 M using freshly made 100 mM ammonium bicarbonate solution. […]\nSamples were desalted and fractioned by bRPLC (basic pH reversed phase HPLC) on a ZORBAX 300 Extend-C18 column (Narrow Bore RR 2.1 mm×100 mm, 3.5 μm particle size, 300 Å pore size). […] Samples were then analyzed on an Orbitrap Elite mass spectrometer (Thermo Fisher Scientific) using a top 15 HCD (higher-energy collisional dissociation) method.\nThe maximum intensity of each reporter ion was extracted. For each reporter ion channel, the observed signal-to-noise ratio was summed across all quantified proteins and was normalized."}}, "note": "Where a SMILES comes first, the peptide text is derived from it. The star is where a group is joined. Cbz = O=C(OCc1ccccc1)*", "data": [{"smiles": "C[C@]1(c2nc3c(C(N)=O)cccc3[nH]2)CCCN1", "note": "[Veliparib]", "values": [{"measurement": "potency in PARP1 trapping (rank order)", "setting": "PARP1 [1]", "value": "BMN673>Niraparib>Olaparib>Rucaparib>Veliparib"}]}, {"smiles": "NC(=O)c1cccc2cn(-c3ccc([C@@H]4CCCNC4)cc3)nc12", "note": "[Niraparib]", "values": [{"measurement": "potency in PARP1 trapping (rank order)", "setting": "PARP1 [1]", "value": "BMN673>Niraparib>Olaparib>Rucaparib>Veliparib"}]}, {"smiles": "Nc1cccc2c1C(=O)N(C1CCC(=O)NC1=O)C2=O", "note": "(centres unmarked) [pomalidomide, reference compound]", "values": [{"measurement": "effect on PARP1 protein levels", "setting": "PARP1 [2]; 5 μM", "value": "had no effect on PARP1 protein levels"}, {"measurement": "effect on iRucaparib-induced PARP1 degradation", "setting": "PARP1 [2]", "value": "block PARP1 degradation"}, {"measurement": "overall survival (median)", "setting": "[3]", "value": 11.9, "unit": "months"}]}, {"smiles": "CN(CCCCc1cn(CCOCCNc2cccc3c2C(=O)N(C2CCC(=O)NC2=O)C3=O)nn1)Cc1ccc(-c2[nH]c3cc(F)cc4c3c2CCNC4=O)cc1", "note": "(centres unmarked) [PEG1, Rucaparib-Triazole-PEG1-Pomalidomide]", "values": [{"measurement": "PARP1 degradation", "setting": "PARP1 [2]", "value": "not able to degrade PARP1"}, {"measurement": "biochemical (catalytic) inhibition of PARP1", "setting": "PARP1 [4]", "value": "maintained catalytic inhibitory activity against PARP1"}]}, {"smiles": "CN(CCCCc1cn(CCOCCOCCNc2cccc3c2C(=O)N(C2CCC(=O)NC2=O)C3=O)nn1)Cc1ccc(-c2[nH]c3cc(F)cc4c3c2CCNC4=O)cc1", "note": "(centres unmarked) [PEG2, Rucaparib-Triazole-PEG2-Pomalidomide]", "values": [{"measurement": "PARP1 degradation", "setting": "PARP1 [2]", "value": "not able to degrade PARP1"}, {"measurement": "biochemical (catalytic) inhibition of PARP1", "setting": "PARP1 [4]", "value": "maintained catalytic inhibitory activity against PARP1"}]}, {"smiles": "CC(C)C[C@@H](C=O)NC(=O)[C@H](CC(C)C)NC(=O)[C@H](CC(C)C)NC(=O)OCc1ccccc1", "note": "[MG132, reference compound] (Cbz-Leu-Leu-Leu-aldehyde)", "values": [{"measurement": "effect on VHL-Rucaparib-induced PARP1 degradation", "setting": "PARP1 [5]; PC-3 cells, VHL-Rucaparib 10 μM plus MG-132 1 μM", "value": "could be rescued by MG-132 treatment"}, {"measurement": "effect on iRucaparib-induced PARP1 degradation", "setting": "PARP1 [2]", "value": "completely blocked"}]}, {"smiles": "CN(CCCCc1cn(CCOCCOCCOCCOCCNc2cccc3c2C(=O)N(C2CCC(=O)NC2=O)C3=O)nn1)Cc1ccc(-c2[nH]c3cc(F)cc4c3c2CCNC4=O)cc1", "note": "(centres unmarked) [PEG4 PROTAC, Rucaparib-Triazole-PEG4-Pomalidomide]", "values": [{"measurement": "PARP1 degradation", "setting": "PARP1 [2]", "value": "able to degrade PARP1 as efficiently as iRucaparib"}]}, {"smiles": "Cc1ncsc1-c1ccc(CNC(=O)[C@@H]2C[C@@H](O)CN2C(=O)[C@@H](NC(=O)CCOCCOCCOCCOCCn2cc(CCCCN(C)Cc3ccc(-c4[nH]c5cc(F)cc6c5c4CCNC6=O)cc3)nn2)C(C)(C)C)cc1", "note": "[VHL-Rucaparib, Rucaparib-Triazole-PEG4-VHL-Ligand]", "values": [{"measurement": "PARP1 degradation", "setting": "PARP1 [5]; BT549 cells, iRucaparib 5 μM or VHL-Rucaparib 20 μM", "value": "robust PARP1 degradation"}, {"measurement": "PARP1 level", "setting": "PARP1 [5]; BT-549 cells (VHL-proficient)", "value": "successfully downregulated"}, {"measurement": "PARP1 level", "setting": "PARP1 [5]; PC-3 cells (VHL-proficient), 10 μM", "value": "successfully downregulated"}, {"measurement": "PARP1 downregulation", "setting": "PARP1 [6]", "value": "one of the most significantly downregulated proteins"}, {"measurement": "ZFP91 abundance change", "setting": "ZFP91", "value": "did not show any changes"}]}]}
